Columns and labels:
Format in all cases: functional, Homo sapiens
U2OS [1] = experiment: (§1) Here: values are normalized to the negative (DMSO; defined as 0% autophagy induction) and positive (250nM Torin1; mTOR inhibitor; defined as maximal inducer of autophagy = 100%) control compounds and represented as % of autophagy induction. […] The impact of autophagy induction on cells is complex and depends on the affected target. As such, the magnitude of a phenotype may not be equally mirrored in the %-value of autophagy induction and vice versa. The dynamics of the induction may indicate the mode of activation: e.g. activation via phosphorylation or a signaling cascade may occur fast, while activation via transcription factors may take considerably longer. […] Of note, treatment concentrations may be sub-optimal for specific compounds, leading to false negative annotations.; conditions: Culturing Media DMEM, 1 % Penicillin/Streptomycin, 10% Fetal bovin serum Add-On: No, Screening Media Control DMEM, Screening Media Samples DMEM
TERT-RPE1 = experiment: as §1; conditions: Culturing Media DMEM/F12 (1:1), 1 % Penicillin/Streptomycin, 10% Fetal bovin serum Add-On: No, Screening Media Control DMEM/F12 (1:1), Screening Media Samples DMEM/F12 (1:1)
U2OS [2] = experiment: as §1; conditions: Culturing Media DMEM, 1 % Penicillin/Streptomycin, 10% Fetal bovin serum Add-On: No, Screening Media Control DMEM, Screening Media Samples DMEM; remark: listed apart in the source
[3] = Compound Concentration 0.5 uM, Timepoint 12 hours
[4] = Compound Concentration 0.5 uM, Timepoint 24 hours
[5] = Compound Concentration 0.5 uM, Timepoint 36 hours
[6] = Compound Concentration 0.5 uM, Timepoint 60 hours
[7] = Compound Concentration 2 uM, Timepoint 12 hours
[8] = Compound Concentration 2 uM, Timepoint 24 hours
[9] = Compound Concentration 2 uM, Timepoint 36 hours
[10] = Compound Concentration 2 uM, Timepoint 60 hours
[11] = Compound Concentration 10 uM, Timepoint 12 hours
[12] = Compound Concentration 10 uM, Timepoint 24 hours
[13] = Compound Concentration 10 uM, Timepoint 36 hours
[14] = Compound Concentration 10 uM, Timepoint 60 hours

COc1ccnc(N2CCC3(CCCN(Cc4c[nH]c5ccccc45)C3=O)CC2)n1
autophagy induction (U2OS [1]; [3]): -0.8639% | autophagy induction (U2OS [1]; [4]): 3.062% | autophagy induction (U2OS [1]; [5]): -2.159% | autophagy induction (U2OS [1]; [6]): 0.6428% | autophagy induction (U2OS [1]; [7]): 14.1219% | autophagy induction (U2OS [1]; [8]): 7.888% | autophagy induction (U2OS [1]; [9]): 7.881% | autophagy induction (U2OS [1]; [10]): 5.533% | autophagy induction (U2OS [1]; [11]): -0.07351% | autophagy induction (U2OS [1]; [12]): -0.8676% | autophagy induction (U2OS [1]; [13]): 0.7982% | autophagy induction (U2OS [1]; [14]): -3.188% | autophagy induction (TERT-RPE1; [3]): -7.48% | autophagy induction (TERT-RPE1; [4]): -12.7476% | autophagy induction (TERT-RPE1; [5]): -12.8002% | autophagy induction (TERT-RPE1; [6]): -18.0789% | autophagy induction (TERT-RPE1; [7]): -3.2646% | autophagy induction (TERT-RPE1; [8]): -8.655% | autophagy induction (TERT-RPE1; [9]): -9.0208% | autophagy induction (TERT-RPE1; [10]): -13.8382% | autophagy induction (TERT-RPE1; [11]): -6.8833% | autophagy induction (TERT-RPE1; [12]): -7.1204% | autophagy induction (TERT-RPE1; [13]): -8.728% | autophagy induction (TERT-RPE1; [14]): -9.531% | autophagy induction (U2OS [2]; [3]): 6.725% | autophagy induction (U2OS [2]; [4]): 2.47% | autophagy induction (U2OS [2]; [5]): 0.2405% | autophagy induction (U2OS [2]; [6]): -0.1995% | autophagy induction (U2OS [2]; [7]): -9.208% | autophagy induction (U2OS [2]; [8]): -5.729% | autophagy induction (U2OS [2]; [9]): -5.289% | autophagy induction (U2OS [2]; [10]): -3.421% | autophagy induction (U2OS [2]; [11]): 2.478% | autophagy induction (U2OS [2]; [12]): -1.409% | autophagy induction (U2OS [2]; [13]): -1.806% | autophagy induction (U2OS [2]; [14]): -1.259%

Source: ChEMBL document CHEMBL5724696, “Autophagy assay results for EUbOPEN Chemogenomics Library” (2024)
